The test system of data set [1] is skin hair follicles and sebaceous glands of mice. Briefly: Mouse hair loss model: histopathological grading of skin hair follicles and sebaceous glands. It counts as in vivo, C57BL/6 mice. The settings on record: external 2% tincture, 60 days, 6 mice per group; for number of mice with hair follicle and sebaceous gland grade +++: grade +++ (most severe); for number of mice with hair follicle and sebaceous gland grade ±: grade ± (lesions limited); for number of mice with hair follicle and sebaceous gland grade −: grade − (normal structure). The source says: The experimental mice were divided into the negative control group (external use of 60% ethanol), model group (external use of 60% ethanol), positive control group (external use of 2% minoxidil tincture), CLY-1 external treatment group (external use of 2% CLY-1 tincture), CLY-2 external treatment group (external use of 2% CLY-2 tincture), CLY-3 external treatment group (external use of 2% CLY-3 tincture), CLY-4 external treatment group (external use of 2% CLY-4 tincture), CLY-8 external treatment group (external use of 2% CLY-8 tincture) CLY-11 external treatment group (2% CLY-11 tincture), CLY-19 external treatment group (2% CLY-19 tincture), CLY-36 external treatment group (2% CLY-36 tincture), and CLY-39 external treatment group (2% CLY-39 tincture). There were 6 animals in each group, half male and half female. An area of 4 cm×5 cm from the back of experimental mice with hair removed was selected, and the hair removal area was painted yellow with 3% picric acid solution to determine the observation area of the hair removal experiment. In addition to the negative control group, mice in other groups were injected subcutaneously with testosterone propionate injection [8 ml/(kg·d)] at the back of the neck, once a day, for 60 consecutive days, to establish the model of androgenic alopecia (AGA). At the same time of modeling, the rats in the corresponding drug group were smeared with drugs on the observation area of the back at the rate of 1 ml/(piece·time), twice a day, with an interval of 2 hours. The normal control group and the model control group were smeared with the excipient (60% ethanol solution), 1 ml/(one time), twice a day, for 60 consecutive days.
10 hairs were extracted from the observation area on the back of each mouse every 15 days after administration, and the hair length was measured with a vernier caliper. After 60 days of administration, the skin of the experimental observation area was taken for routine tissue dehydration, paraffin embedding, HE staining, and light microscopy to observe the histopathological changes of mouse skin hair follicles and sebaceous glands. Semi-quantitative analysis was performed for each group. The grading criteria are as follows: the normal structure of dermal tissue cells, subcutaneous hair follicles, and sebaceous glands is marked as […]: no hyperplasia of dermal tissue is found, the lesions of hair follicles and sebaceous glands are limited, and no inflammation is found under the skin is marked as “+”: no obvious hyperplasia of dermal tissue is found, and the follicles are obviously cystic. No obvious hyperplasia of sebaceous glands is found, and no inflammation is found under the skin is marked as “+”: the dermal tissue has segmental hyperplasia, which is not obvious, A small number of hair follicles have cystic changes, and the sebaceous glands have mild hyperplasia and hypertrophy. There is no obvious inflammation under the skin, which is marked as “++”: the dermal tissue cells of the skin have different degrees of segmental hyperplasia, and some hair follicles have cystic changes, showing uneven size of hair follicles, and no cells around. The sebaceous glands have hyperplasia, and the nuclei in the proliferative glands are few. A few subcutaneous mild inflammatory hyperplasia is marked as “+++”.

A further data set relates to rat hair loss model. Briefly: Rat hair loss (androgenic alopecia) model: hair length. In kind it is in vivo, Wistar rats. The settings on record: for 15-day hair length / 30-day hair length / 45-day hair length / 60-day hair length: rat AGA model; for adverse reactions: rat hair loss model, external use and system application, 60 days. The source says:
(1) Compound CLY-1, CLY-2, CLY-3, CLY-4, CLY-5, CLY-8, CLY-11, CLY-19, CLY-36, CLY-39 tincture preparation method: 75% ethanol was mixed with appropriate amount of above compounds to prepare a tincture of different concentrations.
(2) Positive treatment drug: 5% minoxidil tincture (trade name: Mandi, Zhejiang Wanma Pharmaceutical Co., Ltd.).
Wistar rats were, according to weights, randomly divided into the negative control group (75% ethanol for external use), model group (75% ethanol for external use), positive control group (external 5% minoxidil tincture), CLY-1 external treatment group (external 5% CLY-1 tincture), CLY-2 external treatment group (external 5% CLY-2 tincture), CLY-3 external treatment group (external 5% CLY-3 tincture), CLY-4 external treatment group (external 5% CLY-4 tincture), and CLY-5 external treatment group (external 5% CLY-5 tincture) according to their body weight CLY-8 external treatment group (external 5% CLY-8 tincture), CLY-11 external treatment group (external 5% CLY-11 tincture), CLY-19 external treatment group (external 5% CLY-19 tincture), CLY-36 external treatment group (external 5% CLY-36 tincture), CLY-39 external treatment group (external 5% CLY-39 tincture), CLY-1 intravenous injection group (2 mg/kg·d), CLY-3 intravenous injection group (2 mg/kg·d), CLY-4 intravenous injection group (2 mg/kg·d) CLY-5 intravenous injection group (2 mg/kg·d), CLY-8 intravenous injection group (2 mg/kg·d), CLY-11 intravenous injection group (2 mg/kg·d), CLY-19 intravenous injection group (2 mg/kg·d), CLY-36 intravenous injection group (2 mg/kg·d), and CLY-39 intravenous injection group (2 mg/kg·d), with 10 rats in each group. Before the experiment, an area of 4 cm×5 cm was selected on each rat on the back of the neck to remove hair as the observation area. In addition to the negative control group, rats were subcutaneously injected with testosterone propionate injection [5 ml/(kg·d)] once a day for 60 days to establish the androgenic alopecia (AGA) model. […] At the same time, the drug was applied to the observation area on the back of the rats in the corresponding drug group at the rate of 2 mL/(one time), twice a day, at an interval of 8 hours; Intravenous administration once a day. The negative control group and the model control group were smeared with 75% ethanol solution, 2 mL/(one rat per time), twice a day, for 60 days.
Took 10 hairs from the observation area on the back of each rat every 15 days after administration, and measured the hair length with a vernier caliper. After 60 days of administration, the skin of the experimental observation area was taken for routine tissue dehydration, paraffin embedding, HE staining, and light microscopy to observe the histopathological changes of the rat skin hair follicles and sebaceous glands. Semi-quantitative analysis was performed for each group. The grading criteria are as follows: the normal structure of dermal tissue cells, subcutaneous hair follicles, and sebaceous glands is marked as […]: no hyperplasia of dermal tissue is found, the lesions of hair follicles and sebaceous glands are limited, and no inflammation is found under the skin is marked as “+”: no obvious hyperplasia of dermal tissue is found, and the follicles are obviously cystic. No obvious hyperplasia of sebaceous glands is found, and no inflammation is found under the skin is marked as “+”: the dermal tissue has segmental hyperplasia, which is not obvious, A small number of hair follicles have cystic changes, and the sebaceous glands have mild hyperplasia and hypertrophy. There is no obvious inflammation under the skin, which is marked as “++”: the dermal tissue cells of the skin have different degrees of segmental hyperplasia, and some hair follicles have cystic changes, showing uneven size of hair follicles, and no cells around. The sebaceous glands have hyperplasia, and the nuclei in the proliferative glands are few. […]

Where [2] appears, read: external 5% tincture twice a day.
[3] abbreviates: intravenous injection 2 mg/kg·d.

Marks after values point to notes of the source that are not given here.

For the compound `O=C(c1ccc(-c2ccccc2Cl)cc1)N(c1ncccc1Cl)[C@@H]1CCCNC1` [CLY-36], in data set [1], the “number of mice with hair follicle and sebaceous gland grade +++” value stood at 0; the “number of mice with hair follicle and sebaceous gland grade ++” value is 2; the “number of mice with hair follicle and sebaceous gland grade +” value stood at 1; the “number of mice with hair follicle and sebaceous gland grade ±” value is listed as 3. Besides, the “number of mice with hair follicle and sebaceous gland grade −” value in data set [1] amounted to 0. In the data set with rat hair loss model (setting [2]), the 15-day hair length is given as 8.1* mm, the 30-day hair length is recorded as 8.7* mm, the 45-day hair length is 13.81* mm and the 60-day hair length is given as 17.1* mm. Besides, in the data set with rat hair loss model (setting [3]), the 15-day hair length is reported as 8.6* mm, the 30-day hair length is listed as 9.2* mm, the 45-day hair length is 14.2* mm and the 60-day hair length was 17.3* mm. Further, the adverse reactions entry in the data set with rat hair loss model was “no obvious adverse reactions”.

Consider `CNC1CCCC(N(C(=O)c2ccc(-n3nnc4cccnc43)cc2)c2ncccc2Cl)C1` (centres unmarked) [CLY-3], for which, in data set [1], the “number of mice with hair follicle and sebaceous gland grade +++” value stood at 0; the “number of mice with hair follicle and sebaceous gland grade ++” value came out at 2; the “number of mice with hair follicle and sebaceous gland grade +” value was determined as 1; the “number of mice with hair follicle and sebaceous gland grade ±” value came to 3. The “number of mice with hair follicle and sebaceous gland grade −” value in data set [1] is 0. In addition, in the data set with rat hair loss model (setting [2]), the 15-day hair length is recorded as 7.5* mm, the 30-day hair length is recorded as 8.6* mm, the 45-day hair length is 12.45* mm and the 60-day hair length is reported as 16.3* mm. Further, in the data set on rat hair loss model (setting [3]), the 15-day hair length is recorded as 7.3* mm, the 30-day hair length is reported as 8.9* mm, the 45-day hair length is listed as 13.9* mm and the 60-day hair length is on record as 16.8* mm. Further, the adverse reactions result in the data set on rat hair loss model is “no obvious adverse reactions”.

Consider `Nc1ccccc1-c1ccc(C(=O)N(c2ncccc2Cl)[C@@H]2CCCNC2)cc1` [CLY-39], for which, in data set [1], the “number of mice with hair follicle and sebaceous gland grade +++” value was 0; the “number of mice with hair follicle and sebaceous gland grade ++” value came out at 1; the “number of mice with hair follicle and sebaceous gland grade +” value turned out to be 2; the “number of mice with hair follicle and sebaceous gland grade ±” value stood at 3. Also, the “number of mice with hair follicle and sebaceous gland grade −” value in data set [1] worked out at 0. For the same compound, in the data set on rat hair loss model (setting [2]), the 15-day hair length is on record as 9.1* mm, the 30-day hair length is reported as 9.3* mm, the 45-day hair length is listed as 14.8* mm and the 60-day hair length is given as 18.2* mm. Moreover, in the data set on rat hair loss model (setting [3]), the 15-day hair length is listed as 9.3* mm, the 30-day hair length is given as 9.9* mm, the 45-day hair length was 14.9* mm and the 60-day hair length was 18.1* mm. Also, in the data set with rat hair loss model, the adverse reactions result is “no obvious adverse reactions”.

Turning to `O=C(c1ccc(-n2nnc3cccnc32)cc1)N(c1ncccc1Cl)[C@@H]1CCNC1` [CLY-8, (R)-4-(3H-[1,2,3]triazolo[4,5-b]pyridin-3-yl)-N-(3-chloropyridin-2-yl)-N-(pyrrolidin-3-yl)benzamide], in data set [1], the “number of mice with hair follicle and sebaceous gland grade +++” value worked out at 0; the “number of mice with hair follicle and sebaceous gland grade ++” value came to 0; the “number of mice with hair follicle and sebaceous gland grade +” value stood at 2; the “number of mice with hair follicle and sebaceous gland grade ±” value came to 4. In addition, the “number of mice with hair follicle and sebaceous gland grade −” value in data set [1] was found to be 0. Also, in the data set with rat hair loss model (setting [2]), the 15-day hair length is given as 9.3* mm, the 30-day hair length is listed as 10.3* mm, the 45-day hair length was 15.7* mm and the 60-day hair length was 19.2* mm. Besides, in the data set on rat hair loss model (setting [3]), the 15-day hair length is recorded as 7.3* mm, the 30-day hair length was 9.5* mm, the 45-day hair length is given as 13.8* mm and the 60-day hair length was 17.8* mm. For the same compound, the adverse reactions result with rat hair loss model is “no obvious adverse reactions”.

As to `Nc1cc(N2CCCCC2)nc(N)[n+]1[O-]` [Positive control group, minoxidil, reference compound], in data set [1], the “number of mice with hair follicle and sebaceous gland grade +++” value was determined as 0; the “number of mice with hair follicle and sebaceous gland grade ++” value was determined as 3; the “number of mice with hair follicle and sebaceous gland grade +” value was 1; the “number of mice with hair follicle and sebaceous gland grade ±” value was found to be 2. In data set [1], the “number of mice with hair follicle and sebaceous gland grade −” value is 0. Moreover, in the data set on rat hair loss model (setting [2]), the 15-day hair length was 7.6* mm, the 30-day hair length was 8.5* mm, the 45-day hair length is reported as 13.1* mm and the 60-day hair length is given as 16.2* mm.

As for `COC1CCCC(N(C(=O)c2ccc(-n3nnc4cccnc43)cc2)c2ncccc2Cl)C1` (centres unmarked) [CLY-5], in the data set with rat hair loss model (setting [2]), the 15-day hair length is given as 9.2* mm, the 30-day hair length is given as 10.2* mm, the 45-day hair length is given as 15.5* mm and the 60-day hair length was 18.9* mm. Also, in the data set with rat hair loss model (setting [3]), the 15-day hair length is 7.8* mm, the 30-day hair length was 9.3* mm, the 45-day hair length is given as 13.7* mm and the 60-day hair length is recorded as 16.4* mm. Besides, the adverse reactions result in the data set on rat hair loss model was “no obvious adverse reactions”.

(Values after patent publication US20240300945A1, “CLY SERIES COMPOUND, PREPARATION METHOD THEREFOR AND USE THEREOF IN PREPARATION OF DRUGS” (NANJING WELLBEST PHARMACEUTICAL CO., LTD, priority 2021, published 2024).)
